These results are taken from patent US20200170269A1, “ALLULOSE-CONTAINING COMPOSITION FOR PROMOTING EXCRETION OF VEGETABLE LIPIDS FROM THE BODY” (CJ CHEILJEDANG CORPORATION, priority 2016, published 2020).

Format in all cases: in vivo
Test [1] in a line: Fecal lipid excretion (triglycerides, cholesterol, free fatty acids) in C57BL/6J mice fed a high-fat diet containing vegetable lipids with or without 5% allulose for 8 weeks. The conditions noted are these: in words. The text has this: Twenty C57BL/6J mice (male, 4-week-old) were purchased from The Jackson Laboratory (USA) and used. After the animals were acclimated to the feeding environment with a lab-chow diet (Purina Co., USA) for 4 weeks, they were divided by a randomized block design into two groups: a negative control group without the ingestion of allulose (n=10/one kind of lipid); and a test group with the ingestion of allulose (n=10/one kind of lipid) and they were fed with the diets for 8 weeks. For the negative control group, the high-fat diet was applied to the AIN-76 diet, and the vegetable lipids [palm oil ([…], Malaysia), olive oil (CJ CheilJedang Corp., South Korea), soybean oil (CJ CheilJedang Corp., South Korea), margarine (Ottogi Foods Co., Ltd., 'Corn margarine', raw materials: consisted of 80 wt % of vegetable lipids (palm olein oil, palm stearin oil, coconut oil, corn oil)] were included. For the test group, among the ingredients of the diet for the negative control group, 5 wt % of sucrose was replaced with allulose (crystalline allulose, 98 wt % of allulose based on dry solids, CJ CheilJedang Corporation) (Table 1). All the animal experiments were carried out under the approval of the Ethics Committee for Animal Studies at Kyungpook National University, South Korea (approval no. KNU-2013-18). […] To remove the turbidity occurring from the development with 3 mM cholic acid (sodium salt), 0.5% Triton X-100 as an emulsifier was mixed with an enzyme test solution during the quantification of total cholesterol and neutral lipids. […] For the quantification of both free cholesterol (FC) and ester-type cholesterol (CE) in the feces, CE was converted by cholesterol esterase into FC and fatty acids. […] The resulting product and H2O2 which is the substrate were subjected to the reaction with peroxidase, phenol, and 4-amino-antipyrine to obtain a color developing material and the absorbance was measured at 500 nm. Quantification was carried out by comparing the measured value with the cholesterol standard curve. […]

A short description of test [2]: Body weight of C57BL/6J mice fed a high-fat diet containing vegetable lipids (palm oil, olive oil, soybean oil, margarine) with or without 5% allulose for 8 weeks. To be noted: with allulose (5%), mean (SE in cell below); for Initial body weight: 0th week. The text has this: Twenty C57BL/6J mice (male, 4-week-old) were purchased from The Jackson Laboratory (USA) and used. After the animals were acclimated to the feeding environment with a lab-chow diet (Purina Co., USA) for 4 weeks, they were divided by a randomized block design into two groups: a negative control group without the ingestion of allulose (n=10/one kind of lipid); and a test group with the ingestion of allulose (n=10/one kind of lipid) and they were fed with the diets for 8 weeks. For the negative control group, the high-fat diet was applied to the AIN-76 diet, and the vegetable lipids [palm oil ([…], Malaysia), olive oil (CJ CheilJedang Corp., South Korea), soybean oil (CJ CheilJedang Corp., South Korea), margarine (Ottogi Foods Co., Ltd., 'Corn margarine', raw materials: consisted of 80 wt % of vegetable lipids (palm olein oil, palm stearin oil, coconut oil, corn oil)] were included. For the test group, among the ingredients of the diet for the negative control group, 5 wt % of sucrose was replaced with allulose (crystalline allulose, 98 wt % of allulose based on dry solids, CJ CheilJedang Corporation) (Table 1). All the animal experiments were carried out under the approval of the Ethics Committee for Animal Studies at Kyungpook National University, South Korea (approval no. KNU-2013-18). All groups were allowed to ingest the iso-energetic diet of the same level by pair feeding based on the test group so as to exclude the calorie-reducing effect due to the allulose and the diets were kept refrigerated at 4° C. during the feeding period. The animals were housed in an individual cage under constant temperature (25±2° C.), constant humidity (50±5%), and a 12 h dark-light cycle. Dietary intake was measured at a constant time every day, and the body weight was measured at a constant time every week.

A short description of test [3]: Fecal lipid excretion (triglycerides, cholesterol, free fatty acids) in C57BL/6J mice fed a high-fat diet containing creamer with or without 5% allulose for 8 weeks. To be noted: allulose consumed along with vegetable lipids in the creamer, in words. The text has this:
Sixteen C57BL/6J mice (male, 4-week-old) were purchased from The Jackson Laboratory (USA) and used. After the animals were acclimated to the feeding environment with a lab-chow diet (Purina Co., USA) for 4 weeks, they were divided by a randomized block design into two groups: a negative control group without the ingestion of allulose (PR, n=8); and a test group with the ingestion of allulose (PRA, n=8) and they were fed with the diets for 8 weeks. […] To remove the turbidity occurring from the development with 3 mM cholic acid (sodium salt), 0.5% Triton X-100 as an emulsifier was mixed with an enzyme test solution during the quantification of total cholesterol and neutral lipids. […] For the quantification of both free cholesterol (FC) and ester-type cholesterol (CE) in the feces, CE was converted by cholesterol esterase into FC and fatty acids. […] The resulting product and H2O2 which is the substrate were subjected to the reaction with peroxidase, phenol, and 4-amino-antipyrine to obtain a color developing material and the absorbance was measured at 500 nm. Quantification was carried out by comparing the measured value with the cholesterol standard curve. […]

As for `O=C(CO)C(O)C(O)C(O)CO` [allulose, Allulose (D-psicose)], the “Cholesterol content in the feces / excretion of cholesterol” value in test [1] (HFD + soybean oil with 5% allulose compared to the SO group) is on record as “increased”. Further, the “Fecal excretion of lipids” value is listed as “promoted” in test [1] (allulose consumed along with each of palm oil, olive oil, soybean oil, and margarine); “promoted” in test [3]. For the same compound, the “Effect of excreting lipids compared to ingestion of allulose along with other vegetable lipids” value in test [1] (allulose taken together with soybean oil) is reported as “excellent”. Further, the Initial body weight in test [2] (HFD + margarine) is listed as 21.57±; in test [2] (HFD + olive oil) it was 21.28±; in test [2] (HFD + palm oil) it was 21.62±; in test [2] (HFD + soybean oil), 21.23±. Also, the “Body weight on 8th week” value in test [2] (HFD + margarine) is 32.30±; in test [2] (HFD + olive oil), 28.87±; in test [2] (HFD + palm oil), 29.57±; in test [2] (HFD + soybean oil), 28.84±.
